Laboratory results from the NIST ThermoML archive (doi:10.1016/j.fluid.2009.09.015).

Assays:
[1] = Liquid; for mass density: 298 K, Vibrating tube method; for mass density / viscosity: 101.33 kPa; for viscosity: 298.15 K, Capillary tube (Ostwald / Ubbelohde) method; for Normal boiling temperature: Ebulliometric method (Recirculating still)
[2] = refractive index (Na D-line) (dimensionless); settings: 298.15 K; 101.33 kPa; Liquid; ATAGO RX-5000 refractometer with Hero Therm thermostat
[3] = xn = mol fraction of the nth substance listed; settings: 298.15 K, 101 kPa, Liquid; for viscosity: Capillary tube (Ostwald / Ubbelohde) method; for mass density: Vibrating tube method
[4] = refractive index (Na D-line) (dimensionless); xn = mol fraction of the nth substance listed; settings: 298.15 K, 101 kPa, Liquid, ATAGO RX-5000 refractometer with Hero Therm thermostat

CCCCCCCCn1cc[n+](C)c1.O=S(=O)([N-]S(=O)(=O)C(F)(F)F)C(F)(F)F
Settings | mass density [kg/m3] | refractive index | viscosity [mPa·s]
[1] | 1320.59 | – | 92.51
[2] | – | 1.43298 | –

CCCCCCCCn1cc[n+](C)c1.O=S(=O)([N-]S(=O)(=O)C(F)(F)F)C(F)(F)F + CC(=O)OC(C)C
Settings | mass density, [3] [kg/m3] | refractive index, [4] | viscosity, [3] [mPa·s]
x2 = 0.0415 | 1314.43 | 1.43222 | 81.81
x2 = 0.0984 | 1305.77 | 1.4313 | 70.33
x2 = 0.1644 | 1294.72 | 1.43009 | 58.16
x2 = 0.2055 | 1287.14 | 1.42923 | 51.89
x2 = 0.301 | 1267.67 | 1.42702 | 38.25
x2 = 0.3956 | 1244.68 | 1.42458 | 26.57
x2 = 0.4996 | 1214.35 | 1.42091 | 17.09
x2 = 0.5837 | 1184.33 | 1.41742 | 11.42
x2 = 0.7048 | 1129.29 | 1.41083 | 5.785
x2 = 0.8036 | 1068.65 | 1.40324 | 2.993
x2 = 0.8991 | 988.94 | 1.39275 | 1.389

CCCCCCCCn1cc[n+](C)c1.O=S(=O)([N-]S(=O)(=O)C(F)(F)F)C(F)(F)F + CC(C)O
Settings | mass density, [3] [kg/m3] | refractive index, [4] | viscosity, [3] [mPa·s]
x2 = 0.0331 | 1316.64 | 1.43251 | 85.24
x2 = 0.066 | 1312.4 | 1.43205 | 78.1
x2 = 0.105 | 1307.22 | 1.43149 | 71.48
x2 = 0.1823 | 1295.84 | 1.43031 | 60.13
x2 = 0.2732 | 1280.29 | 1.42862 | 47.98
x2 = 0.3284 | 1269.48 | 1.42746 | 39.87
x2 = 0.4097 | 1250.88 | 1.42551 | 33.13
x2 = 0.5055 | 1224.13 | 1.42269 | 24.79
x2 = 0.5848 | 1196.42 | 1.41988 | 19.09
x2 = 0.6747 | 1155.99 | 1.41568 | 13.79
x2 = 0.7832 | 1087.54 | 1.40856 | 8.606
x2 = 0.8966 | 972.52 | 1.39645 | 4.615

CC(=O)OC(C)C [1-methylethyl ethanoate]
Settings | Normal boiling temperature [°C] | mass density [kg/m3] | refractive index | viscosity [mPa·s]
[1] | 88.30 | 866.21 | – | 0.481
[2] | – | – | 1.3748 | –

CC(=O)OC(C)C [1-methylethyl ethanoate] + CC(C)O
Settings | mass density, [3] [kg/m3] | refractive index, [4] | viscosity, [3] [mPa·s]
x1 = 0.1199 | 793.54 | 1.37417 | 1.278
x1 = 0.2041 | 802.03 | 1.37374 | 1.021
x1 = 0.294 | 810.58 | 1.37344 | 0.812
x1 = 0.3802 | 818.32 | 1.3733 | 0.722
x1 = 0.4855 | 827.39 | 1.37331 | 0.635
x1 = 0.5877 | 835.68 | 1.37339 | 0.563
x1 = 0.7138 | 845.52 | 1.37369 | 0.538
x1 = 0.7681 | 849.64 | 1.37383 | 0.515
x1 = 0.8777 | 857.56 | 1.37419 | 0.5

CC(C)O [propan-2-ol]
Settings | Normal boiling temperature [°C] | mass density [kg/m3] | refractive index | viscosity [mPa·s]
[1] | 82.22 | 780.88 | – | 2.073
[2] | – | – | 1.37502 | –
